Results: the supplement of paper PMC8882468
± gives the standard deviation of the averaged measurements.

Legend:
Assay in all cases: CTG-3D luminescence at 96 h relative to day-0 seeding control (ratio to day 0); higher = more growth / less cytotoxicity; PDxO 3D drug screen, 96 h, CTG-3D normalised to day-0 seeding control.
[1] = test system: HCI-003.E2 (organoid from an ER-positive breast cancer xenograft)
[2] = test system: HCI-005.E2 (organoid from a breast cancer xenograft with a HER2-positive history)
[3] = test system: HCI-015 (organoid from a triple-negative breast cancer xenograft)
[4] = test system: HCI-016 (organoid from a triple-negative breast cancer xenograft)
[5] = test system: HCI-019 (organoid from a triple-negative breast cancer xenograft)
[6] = test system: HCI-025 (organoid from a breast cancer xenograft)

CC(C)(C(=O)NCC(F)(F)C(F)(F)F)C(=O)N[C@@H]1C(=O)Nc2ccccc2-c2ccccc21
CTG-3D luminescence at 96 h
Details	12.5 pM	0.00025 µM	0.005 µM	0.1 µM	1 µM	10 µM	100 µM	625 fM
[1]	2.16 ± 0.71	2.26 ± 0.61	2.01 ± 0.5	2.28 ± 0.51	1.96 ± 0.61	2.11 ± 0.91	0.942 ± 0.23	1.86 ± 0.33
[2]	1.47 ± 0.22	1.48 ± 0.29	1.45 ± 0.36	1.8 ± 0.5	1.18 ± 0.59	1.29 ± 0.3	1.03 ± 0.34	1.54 ± 0.15

CTG-3D luminescence at 96 h
Details	12.5 pM	0.00025 µM	0.005 µM	0.1 µM	1 µM	10 µM	100 µM	625 fM
[3], days in culture: 172	1.79	0.907	1.41	0.52	0.649	0.927	0.996	1.66
[3], days in culture: 191	2.23	0.752	0.752	0.54	0.523	0.502	0.509	1.89
[3], days in culture: 218	1.79	1.02	1.03	0.889	0.743	0.516	0.649	1.97
[4], days in culture: 153	2.8	1.65	2.24	1.56	1.82	1.88	0.801	2.19
[4], days in culture: 172	2.46	1.82	1.92	1.28	1.18	1.37	0.772	1.91
[4], days in culture: 190	1.8	1.23	1.17	1.04	1.47	1.46	0.817	1.22
[4], days in culture: 199	1.59	1.04	1.35	1.51	1.42	1.67	0.796	1.63
[5], days in culture: 110	1.83	1.52	1.54	2.23	1.47	2.09	1.37	1.84
[5], days in culture: 131	2.53	3.17	3.05	3.09	2.31	3.61	2.28	4.34
[5], days in culture: 152	3.04	2.87	3.36	1.92	2.19	2.41	1.12	1.98
[6], days in culture: 172	2.02	2.24	3.81	2.44	2.2	2.06	0.839	2.75
[6], days in culture: 209	1.5	1.73	1.93	1.61	1.83	2.01	0.831	1.47
[6], days in culture: 218	2.02	1.91	1.95	1.42	1.45	2.15	1.22	2.19

CCN(c1cc(C#CCN2CCOCC2)cc(C(=O)NCc2c(C)cc(C)[nH]c2=O)c1C)[C@H]1CC[C@H](N(C)CCOC)CC1
CTG-3D luminescence at 96 h
Details	12.5 pM	0.00025 µM	0.005 µM	0.1 µM	1 µM	10 µM	100 µM	625 fM
[1]	1.84 ± 0.67	2.12 ± 0.78	1.71 ± 0.35	1.96 ± 0.49	1.74 ± 0.4	1.89 ± 0.95	0.658 ± 0.5	1.65 ± 0.4
[2]	1.1 ± 0.23	1.52 ± 0.39	1.38 ± 0.23	1.82 ± 0.34	1.14 ± 0.16	1.22 ± 0.23	1.29 ± 0.23	1.34 ± 0.22

CTG-3D luminescence at 96 h
Details	12.5 pM	0.00025 µM	0.005 µM	0.1 µM	1 µM	10 µM	100 µM	625 fM
[3], days in culture: 172	2.25	1.77	2.86	1.78	2.2	1.94	1.91	2.23
[3], days in culture: 191	2.6	1.59	1.92	1.44	2.09	1.44	1.13	1.91
[3], days in culture: 218	1.78	1.4	2	1.49	1.67	2.02	0.907	2.07
[4], days in culture: 153	2.92	1.14	2.22	1.64	2.25	2.06	1.5	3.1
[4], days in culture: 172	2.13	2.17	1.72	1.56	2.1	1.64	1.52	1.33
[4], days in culture: 190	2.02	1.67	1.75	1.5	1.73	1.62	1.56	1.36
[4], days in culture: 199	1.74	2.22	2.22	1.86	2.01	1.95	2.02	2.09
[5], days in culture: 110	2.05	1.49	1.58	2.08	1.81	2.75	2.01	2.28
[5], days in culture: 131	2.63	3.96	3.07	3.21	1.98	2.33	0.501	3.23
[5], days in culture: 152	2.5	4.04	2.16	1.89	2.77	1.9	0.188	2.36
[6], days in culture: 172	2.86	2.03	3.74	2.35	2.66	1.89	2.28	2.74
[6], days in culture: 209	2.08	3.04	2.37	1.7	2.53	1.47	1.54	2.18
[6], days in culture: 218	1.66	1.66	1.76	1.73	1.43	2.1	1.58	1.76
